Test results taken from the NIST ThermoML archive (doi:10.1021/je700339f).

Assay: xn = mol fraction of the nth substance listed
Details: 298 K, Liquid

ClCCCCCCCl [1,6-dichlorohexane] + CC(=O)N(C)C
mass density [kg/m3]
Details | x2 = 0.1002 | x2 = 0.1985 | x2 = 0.3002 | x2 = 0.404 | x2 = 0.4943 | x2 = 0.6007 | x2 = 0.7006 | x2 = 0.8012 | x2 = 0.8994
100 kPa | 1054.5 | 1045.2 | 1034.5 | 1023.1 | 1012.3 | 998.8 | 985.3 | 970.4 | 954.6
500 kPa | 1054.7 | 1045.5 | 1034.8 | 1023.4 | 1012.5 | 999 | 985.6 | 970.7 | 954.8
1000 kPa | 1055.1 | 1045.9 | 1035.2 | 1023.7 | 1012.9 | 999.3 | 985.9 | 971 | 955.1
1500 kPa | 1055.5 | 1046.2 | 1035.6 | 1024.1 | 1013.3 | 999.6 | 986.2 | 971.3 | 955.4
2000 kPa | 1055.8 | 1046.6 | 1035.9 | 1024.4 | 1013.6 | 1000 | 986.5 | 971.6 | 955.7
2500 kPa | 1056.2 | 1046.9 | 1036.2 | 1024.8 | 1013.9 | 1000.3 | 987 | 972 | 956.1
2900 kPa | – | – | – | – | 1014.3 | – | – | – | –
3000 kPa | 1056.5 | 1047.3 | 1036.6 | 1025.1 | – | 1000.6 | 987.2 | 972.3 | 956.4
3500 kPa | 1056.9 | 1047.6 | 1036.8 | 1025.4 | 1014.6 | 1001 | 987.6 | 972.6 | 956.6
4000 kPa | 1057.2 | 1047.9 | 1037.2 | 1025.7 | 1014.9 | 1001.4 | 987.9 | 972.9 | 957
4500 kPa | 1057.6 | 1048.3 | 1037.5 | 1026.1 | 1015.3 | 1001.6 | 988.2 | 973.2 | 957.2
5000 kPa | 1057.9 | 1048.6 | 1037.9 | 1026.5 | 1015.6 | 1002 | 988.5 | 973.5 | 957.6
5500 kPa | 1058.2 | 1049 | 1038.2 | 1026.8 | 1015.9 | 1002.3 | 988.9 | 973.8 | 957.9
6000 kPa | 1058.6 | 1049.3 | 1038.5 | 1027.1 | 1016.3 | 1002.6 | 989.1 | 974.2 | 958.2
6500 kPa | 1058.9 | 1049.6 | 1038.9 | 1027.4 | 1016.6 | 1002.9 | 989.5 | 974.4 | 958.5
7000 kPa | 1059.3 | 1049.9 | 1039.2 | 1027.7 | 1016.9 | 1003.3 | 989.7 | 974.7 | 958.8
7500 kPa | 1059.6 | 1050.2 | 1039.5 | 1028.1 | 1017.2 | 1003.6 | 990.1 | 975 | 959
8000 kPa | 1060 | 1050.6 | 1039.9 | 1028.4 | 1017.4 | 1003.9 | 990.4 | 975.4 | 959.4
8500 kPa | 1060.3 | 1050.9 | 1040.2 | 1028.7 | 1017.8 | 1004.2 | 990.6 | 975.7 | 959.7
9000 kPa | 1060.6 | 1051.2 | 1040.6 | 1029.1 | 1018.1 | 1004.5 | 991 | 976 | 960
9500 kPa | 1061 | 1051.6 | 1040.9 | 1029.4 | 1018.5 | 1004.8 | 991.2 | 976.3 | 960.3
10000 kPa | 1061.4 | 1052 | 1041.3 | 1029.8 | 1018.9 | 1005.2 | 991.6 | 976.7 | 960.6
10500 kPa | 1061.7 | 1052.3 | 1041.6 | 1030.2 | 1019.2 | 1005.5 | 992 | 977 | 960.9
11000 kPa | 1062 | 1052.6 | 1041.9 | 1030.4 | 1019.5 | 1005.8 | 992.3 | – | 961.2
11400 kPa | – | – | – | – | – | – | – | – | 961.5
11500 kPa | 1062.3 | 1052.9 | 1042.2 | 1030.7 | 1019.9 | 1006.1 | 992.6 | 977.6 | –
12000 kPa | 1062.7 | 1053.3 | 1042.5 | 1031 | 1020.2 | 1006.5 | 992.9 | 977.9 | 961.8
12500 kPa | 1063 | 1053.6 | 1042.9 | 1031.4 | 1020.5 | 1006.7 | 993.2 | 978.2 | 962.1
13000 kPa | 1063.4 | 1054 | 1043.2 | 1031.7 | 1020.8 | 1007 | 993.5 | 978.5 | 962.4
13500 kPa | 1063.7 | 1054.3 | 1043.5 | 1032 | 1021.1 | 1007.4 | 993.8 | 978.7 | 962.6
14000 kPa | 1063.9 | 1054.7 | 1043.8 | 1032.4 | 1021.4 | 1007.6 | 994.1 | 979 | 963
14500 kPa | 1064.3 | 1055 | 1044.2 | 1032.6 | 1021.7 | 1008 | 994.4 | 979.4 | 963.2
15000 kPa | 1064.6 | 1055.3 | 1044.5 | 1032.9 | 1022 | 1008.2 | 994.7 | 979.6 | 963.4
15500 kPa | 1064.9 | 1055.6 | 1044.8 | 1033.3 | 1022.3 | 1008.6 | 995 | 980 | 963.8
16000 kPa | 1065.3 | 1055.9 | 1045.1 | 1033.6 | 1022.6 | 1009 | 995.3 | 980.2 | 964
16400 kPa | – | – | – | – | – | – | – | 980.5 | –
16500 kPa | 1065.6 | 1056.2 | 1045.3 | 1033.9 | 1022.9 | 1009.3 | 995.6 | – | 964.3
17000 kPa | 1065.9 | 1056.5 | 1045.7 | 1034.2 | 1023.2 | 1009.6 | 995.9 | 980.8 | 964.6
17400 kPa | – | – | – | – | – | – | 996.2 | – | –
17500 kPa | 1066.2 | 1056.8 | 1046 | 1034.6 | 1023.5 | 1009.9 | – | 981.1 | 964.9
18000 kPa | 1066.5 | 1057.1 | 1046.3 | 1034.9 | 1023.8 | 1010.2 | 996.5 | 981.4 | 965.2
18500 kPa | 1066.8 | 1057.5 | 1046.7 | 1035.2 | 1024 | 1010.5 | 996.9 | 981.6 | 965.4
19000 kPa | 1067.2 | 1057.8 | 1047 | 1035.5 | 1024.3 | 1010.9 | 997.1 | 982 | 965.7
19500 kPa | 1067.5 | 1058.1 | 1047.3 | 1035.9 | 1024.7 | 1011.2 | 997.4 | 982.3 | 966
19900 kPa | – | – | – | – | – | – | 997.6 | – | –
20000 kPa | 1067.9 | 1058.4 | 1047.7 | 1036.2 | 1025 | 1011.5 | – | 982.6 | 966.4
